These are literature values, as cited in patent publication US10561704B2, “Compositions and methods for treating neuropsychiatric disorders using an endothelin-B receptor agonist” (MIDWESTERN UNIVERSITY, priority 2013, dated 2020).

Where a SMILES comes first, the peptide text is derived from it.

This data set relates to Aβ treated rats. Conditions: Briyal et al., 2011; cited from earlier work.

For `CC(C)C[C@@H]1NC(=O)[C@@H](C(C)C)NC(=O)[C@@H]2CCCN2C(=O)[C@@H](CC(=O)O)NC(=O)[C@@H](Cc2c[nH]c3ccccc23)NC1=O` [BQ123] (HELM PEPTIDE1{L.[dW].[dD].P.[dV]}$PEPTIDE1,PEPTIDE1,1:R1-5:R2$$$V2.0), the “Aβ induced oxidative stress and cognitive deficits” value is “prevent”.

For `Cc1noc(NS(=O)(=O)c2cccc3c(N(C)C)cccc23)c1C` [BMS182874], the “Aβ induced oxidative stress and cognitive deficits” value is on record as “prevent”.
